*1 amine or outer side, *2 acyl side, *3 side chain or, on linkers, in order; H or OH if unused. Where a SMILES comes first, the peptide text is derived from it. Bridges are numbered along the chain shown (N, C = ends). [ ]: non-standard residue; d: D form. The star is where a group is joined. DOTA = O=C(O)CN1CCN(CC(=O)O)CCN(CC(=O)*)CCN(CC(=O)O)CC1; NOTA = O=C(O)CN1CCN(CC(=O)O)CCN(CC(=O)*)CC1; Pro(cis-4-F) = O=C(O)[C@@H]1C[C@H](F)CN1; Tyr(3-NH2) = Nc1cc(C[C@H](N)C(=O)O)ccc1O; Dopa = N[C@@H](Cc1ccc(O)c(O)c1)C(=O)O; Hyp = O=C(O)[C@@H]1C[C@@H](O)CN1; 3Pal = N[C@@H](Cc1cccnc1)C(=O)O; Pentanoyl(4-Me) = CC(C)CCC(=O)*; Tic = O=C(O)[C@@H]1Cc2ccccc2CN1; Cit = NC(=O)NCCC[C@H](N)C(=O)O; Butoxycarbonyl = CCCCOC(=O)*; Nle = CCCC[C@H](N)C(=O)O; Orn = NCCC[C@H](N)C(=O)O; Nva = CCC[C@H](N)C(=O)O; Hexanoyl = CCCCCC(=O)*; Pentanoyl = CCCCC(=O)*; CO = O=C([*:1])[*:2]; NHBu = CCCCN*
Tests used:
human uPAR (uPAR-Fc) = molecular target: T1, human uPAR (uPAR-Fc) (Homo sapiens, UniProt Q03405); assay: Surface plasmon resonance (SPR) assay, single cycle kinetics; format: binding; conditions: pKD category for uPAR SPR activity assay; uPAR-Fc on Protein A-Chip, 25°C; read-out: pKD CAT (converted)
T1 construct: comprising amino acids Leu23-Arg303 according to UniProt entry Q03405.1; purchased R&D Systems 10378-UK-100
In short: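 uPAR-Fc (Leu23-Arg303 extracellular domains, human IgG1 Fc) captured on Protein A chip to ~2000 RU; single-cycle kinetics at 25°C in HEPES running buffer pH 7.4 with 0.1% DMSO. KD from double-referenced sensorgrams fitted to 1:1 Langmuir model, reported as pKD.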

[1] = molecular target: T2, uPAR-expressing HEC-265 human endometrial adenocarcinoma cells (Homo sapiens, UniProt Q03405); assay: Competitive FACS binding assay; conditions: pIC50 category of FACS binding
T2 construct: Cell surface uPAR-expressing HEC-265 human endometrial adenocarcinoma cells; host or cells: HEC-265
In short: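 Competitive displacement of a 10 nM biotinylated peptide from HEC-265 cells (1 h, 4 °C, PBS/1% BSA), detected via APC-streptavidin by flow cytometry. pIC50 from four-parameter logistic fit of median fluorescence versus concentration.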

T1 sequence (Q03405 23-303): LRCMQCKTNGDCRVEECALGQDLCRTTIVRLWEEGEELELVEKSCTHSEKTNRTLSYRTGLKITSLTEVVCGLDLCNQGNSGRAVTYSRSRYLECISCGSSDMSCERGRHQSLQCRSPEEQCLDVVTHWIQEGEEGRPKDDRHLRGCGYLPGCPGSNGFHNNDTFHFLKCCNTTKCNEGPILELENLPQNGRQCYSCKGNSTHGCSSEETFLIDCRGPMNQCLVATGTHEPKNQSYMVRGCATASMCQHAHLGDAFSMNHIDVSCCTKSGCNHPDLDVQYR
T2 sequence (Q03405 23-335): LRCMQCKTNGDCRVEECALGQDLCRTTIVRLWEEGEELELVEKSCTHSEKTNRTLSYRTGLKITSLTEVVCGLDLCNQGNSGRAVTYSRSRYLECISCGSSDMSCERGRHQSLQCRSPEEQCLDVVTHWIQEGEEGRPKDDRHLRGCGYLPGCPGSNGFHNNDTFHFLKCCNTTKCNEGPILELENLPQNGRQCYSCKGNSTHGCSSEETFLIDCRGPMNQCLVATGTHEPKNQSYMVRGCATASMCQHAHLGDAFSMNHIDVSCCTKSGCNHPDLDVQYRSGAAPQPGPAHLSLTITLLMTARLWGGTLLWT

SMILES | Kd (human uPAR (uPAR-Fc)) | IC50 [1]
CCCCOC(=O)N[C@H]1CSSC[C@@H](C(N)=O)NC(=O)[C@H](CCC)NC(=O)[C@H]([C@@H](C)CC)NC(=O)[C@@H]2C[C@@H](O)CN2C(=O)[C@@H]2C[C@H](F)CN2C(=O)[C@H](Cc2ccccc2)NC(=O)[C@H](Cc2ccc(O)c(N)c2)NC(=O)[C@H](CCCNC(=O)CN2CCN(CC(=O)O)CCN(CC(=O)O)CCN(CC(=O)O)CC2)NC(=O)[C@H]([C@@H](C)O)NC1=O [UPAR-234, Butoc-[Cys-Thr-Orn(DOTA)-Ay3-Phe-4Cfp-Hyp-Ile-Nva-Cys]-NHz] (Butoxycarbonyl-CT[Orn](DOTA)[Tyr(3-NH2)]F[Pro(cis-4-F)][Hyp]I[Nva]C-NH2; disulfide 1-10) | < 1.58 nM | ≤ 10 nM
CCCCCC(=O)N[C@@H](CC(=O)O)C(=O)N[C@@H](CC(C)C)C(=O)N[C@H]1CSSC[C@@H](C(N)=O)NC(=O)[C@H](CC(C)C)NC(=O)[C@H]([C@@H](C)CC)NC(=O)[C@H](C)NC(=O)[C@@H]2CCCN2C(=O)[C@H](Cc2ccccc2)NC(=O)[C@H](Cc2ccc(O)cc2)NC(=O)[C@H](CCSC)NC(=O)[C@H](CCCCNC(=O)CN2CCN(CC(=O)O)CCN(CC(=O)O)CCN(CC(=O)O)CC2)NC1=O [UPAR-235, Hex-Asp-Leu-[Cys-Lys(DOTA)-Met-Tyr-Phe-Pro-Ala-Ile-Leu-Cys]-NH2] (Hexanoyl-DLCK(DOTA)MYFPAILC-NH2; disulfide 3-12) | < 1.58 nM | ≤ 10 nM
CCCCC(=O)N[C@H]1CSSC[C@@H](C(N)=O)NC(=O)[C@H](CCC)NC(=O)[C@H]([C@@H](C)CC)NC(=O)[C@@H]2C[C@@H](O)CN2C(=O)[C@@H]2CCCN2C(=O)[C@H](Cc2ccccc2)NC(=O)[C@H](Cc2ccc(O)cc2)NC(=O)[C@H](CCC(N)=O)NC(=O)CNC1=O [UPAR-236, Pent-[Cys-Gly-Gln-Tyr-Phe-Pro-Hyp-Ile-Nva-Cys]-NH2] (Pentanoyl-CGQYFP[Hyp]I[Nva]C-NH2; disulfide 1-10) | < 1.58 nM | ≤ 10 nM
CCCCOC(=O)N[C@H]1CSSC[C@@H](C(N)=O)NC(=O)[C@H](CCC)NC(=O)[C@H]([C@@H](C)CC)NC(=O)[C@@H]2C[C@@H](O)CN2C(=O)[C@@H]2C[C@H](F)CN2C(=O)[C@H](Cc2ccccc2)NC(=O)[C@H](Cc2ccc(O)cc2)NC(=O)[C@H](CCCCNC(=O)CN2CCN(CC(=O)O)CCN(CC(=O)O)CCN(CC(=O)O)CC2)NC(=O)[C@H]([C@@H](C)O)NC1=O [UPAR-237, Butoc-[Cys-Thr-Lys(DOTA)-Tyr-Phe-4Cfp-Hyp-Ile-Nva-Cys]-NH2] (Butoxycarbonyl-CTK(DOTA)YF[Pro(cis-4-F)][Hyp]I[Nva]C-NH2; disulfide 1-10) | < 1.58 nM | ≤ 10 nM
CCCC[C@@H]1NC(=O)[C@H](CCC(=O)O)NC(=O)[C@@H](NC(=O)[C@H](CC(C)C)NC(=O)[C@H](CC(=O)O)NC(C)=O)CSSC[C@@H](C(N)=O)NC(=O)[C@H](CC(C)C)NC(=O)[C@H]([C@@H](C)CC)NC(=O)[C@H](C)NC(=O)[C@@H]2CCCN2C(=O)[C@H](Cc2ccccc2)NC(=O)[C@H](Cc2ccc(O)cc2)NC1=O [UPAR-239, Ac-Asp-Leu-[Cys-Glu-Nle-Tyr-Phe-Pro-Ala-Ile-Leu-Cys]-NH2] (Ac-DLCE[Nle]YFPAILC-NH2; disulfide 3-12) | < 1.58 nM | ≤ 10 nM
CC[C@H](C)[C@@H]1NC(=O)[C@@H]2C[C@@H](O)CN2C(=O)[C@@H]2CCCN2C(=O)[C@H](Cc2ccccc2)NC(=O)[C@H](Cc2ccc(O)cc2)NC(=O)[C@H](CCCCNC(=O)CN2CCN(CC(=O)O)CCN(CC(=O)O)CCN(CC(=O)O)CC2)NC(=O)[C@H](CCCNC(N)=O)NC(=O)[C@@H](NC(=O)CCC(C)C)CSSC[C@@H](C(N)=O)NC(=O)[C@H](CC(C)C)NC1=O [UPAR-240, iHex-[Cys-Cit-Lys(DOTA)-Tyr-Phe-Pro-Hyp-Ile-Leu-Cys]-NH2] ({Pentanoyl(4-Me)}-C[Cit]K(DOTA)YFP[Hyp]ILC-NH2; disulfide 1-10) | < 1.58 nM | ≤ 10 nM
CCCCNC(=O)N[C@H]1CSSC[C@@H](C(N)=O)NC(=O)[C@H](CCC)NC(=O)[C@H]([C@@H](C)CC)NC(=O)[C@@H]2C[C@@H](O)CN2C(=O)[C@@H]2CCCN2C(=O)[C@H](Cc2ccccc2)NC(=O)[C@H](Cc2ccc(O)cc2)NC(=O)[C@H](CCCCNC(=O)CN2CCN(CC(=O)O)CCN(CC(=O)O)CCN(CC(=O)O)CC2)NC(=O)[C@H]([C@@H](C)O)NC1=O [UPAR-242, nBuCAyl-[Cys-Thr-Lys(DOTA)-Tyr-Phe-Pro-Hyp-Ile-Nva-Cys]-NHz] ({NHBu-CO}-CTK(DOTA)YFP[Hyp]I[Nva]C-NH2; disulfide 1-10) | < 1.58 nM | ≤ 10 nM
CC[C@H](C)[C@@H]1NC(=O)[C@@H](C)NC(=O)[C@@H]2CCCN2C(=O)[C@H](Cc2ccccc2)NC(=O)[C@H](Cc2ccc(O)cc2)NC(=O)[C@H](CCC(N)=O)NC(=O)[C@H](CCCNC(N)=O)NC(=O)[C@@H](NC(C)=O)CSSC[C@@H](C(N)=O)NC(=O)[C@H](CC(C)C)NC1=O [UPAR-243, Ac-[Cys-Cit-Gln-Tyr-Phe-Pro-ala-Ile-Leu-Cys]-NH2] (Ac-C[Cit]QYFP[dA]ILC-NH2; disulfide 1-10) | > 100 nM | ≥ 126 nM
CCCC[C@@H]1NC(=O)[C@H](CCCNC(=N)N)NC(=O)[C@@H](NC(=O)[C@@H](CC(C)C)NC(=O)[C@H](CC(=O)O)NC(C)=O)CSSC[C@@H](C(N)=O)NC(=O)[C@H](CC(C)C)NC(=O)[C@H]([C@@H](C)CC)NC(=O)[C@H](C)NC(=O)[C@@H]2CCCN2C(=O)[C@H](Cc2ccccc2)NC(=O)[C@H](Cc2ccc(O)cc2)NC1=O [UPAR-244, Ac-Asp-leu-[Cys-Arg-Nle-Tyr-Phe-Pro-Ala-Ile-Leu-Cys]-NH2] (Ac-D[dL]CR[Nle]YFPAILC-NH2; disulfide 3-12) | < 1.58 nM | ≤ 10 nM
CCCCC(=O)N[C@H]1CSSC[C@@H](C(N)=O)NC(=O)[C@H](CCC)NC(=O)[C@H]([C@@H](C)CC)NC(=O)[C@@H]2C[C@@H](O)CN2C(=O)[C@@H]2CCCN2C(=O)[C@H](Cc2ccccc2)NC(=O)[C@H](Cc2ccc(O)cc2)NC(=O)[C@H](CCCCNC(=O)CN2CCN(CC(=O)O)CCN(CC(=O)O)CCN(CC(=O)O)CC2)NC(=O)[C@H](CCCNC(=O)CCCC(=O)NCCOCCOCCOCCOCCC(=O)NC(COCCC(=O)NCCOCCOCCOCCOCCOCCOCCOCCOCCOCCOCCOCCOC)(COCCC(=O)NCCOCCOCCOCCOCCOCCOCCOCCOCCOCCOCCOCCOC)COCCC(=O)NCCOCCOCCOCCOCCOCCOCCOCCOCCOCCOCCOCCOC)NC1=O [UPAR-247, Pent-[Cys-Orn(TrisPEG)-Lys(DOTA)-Tyr-Phe-Pro-Hyp-Ile-Nva-Cys]-NH2] | 10 to 100 nM | 12.6 to 31.6 nM
CCCCOC(=O)N[C@H]1CSSC[C@@H](C(N)=O)NC(=O)[C@H](CCC)NC(=O)[C@H]([C@@H](C)CC)NC(=O)[C@@H]2C[C@@H](O)CN2C(=O)[C@@H]2CCCN2C(=O)[C@H](Cc2ccccc2)NC(=O)[C@H](Cc2ccc(O)cc2)NC(=O)[C@H](CCCCNC(=O)CN2CCN(CC(=O)O)CCN(CC(=O)O)CCN(CC(=O)O)CC2)NC(=O)[C@H]([C@@H](C)O)NC1=O [UPAR-248, Butoc-[Cys-Thr-Lys(DOTA)-Tyr-Phe-Pro-Hyp-Ile-Nva-Cys]-NH2] (Butoxycarbonyl-CTK(DOTA)YFP[Hyp]I[Nva]C-NH2; disulfide 1-10) | < 1.58 nM | ≤ 10 nM
CCCCOC(=O)N[C@H]1CSSC[C@@H](C(N)=O)NC(=O)[C@H](CCC)NC(=O)[C@H]([C@@H](C)CC)NC(=O)[C@@H]2C[C@@H](O)CN2C(=O)[C@@H]2C[C@H](F)CN2C(=O)[C@H](Cc2ccccc2)NC(=O)[C@H](Cc2ccc(O)c(O)c2)NC(=O)[C@H](CCCCNC(=O)CN2CCN(CC(=O)O)CCN(CC(=O)O)CC2)NC(=O)[C@H]([C@@H](C)O)NC1=O [UPAR-250, Butoc-[Cys-Thr-Lys(NOTA)-Dopa-Phe-4Cfp-Hyp-Ile-Nva-Cys]-NH2] (Butoxycarbonyl-CTK(NOTA)[Dopa]F[Pro(cis-4-F)][Hyp]I[Nva]C-NH2; disulfide 1-10) | < 1.58 nM | ≤ 10 nM
CCCCC(=O)N[C@H]1CSSC[C@@H](C(N)=O)NC(=O)[C@H](CCC)NC(=O)[C@H]([C@@H](C)CC)NC(=O)[C@@H]2C[C@@H](O)CN2C(=O)[C@@H]2CCCN2C(=O)[C@@H]2Cc3ccccc3CN2C(=O)[C@H](Cc2ccc(O)cc2)NC(=O)[C@H](CCCCNC(=O)CN2CCN(CC(=O)O)CCN(CC(=O)O)CCN(CC(=O)O)CC2)NC(=O)[C@H](CCCNC(N)=O)NC1=O [UPAR-252, Pent-[Cys-Cit-Lys(DOTA)-Tyr-Tic-Pro-Hyp-Ile-Nva-Cys]-NH2] (Pentanoyl-C[Cit]K(DOTA)Y[Tic]P[Hyp]I[Nva]C-NH2; disulfide 1-10) | > 100 nM | ≥ 126 nM
CCCCC(=O)N[C@H]1CSSC[C@@H](C(N)=O)NC(=O)[C@H](CCC)NC(=O)[C@H]([C@@H](C)CC)NC(=O)[C@@H]2C[C@@H](O)CN2C(=O)[C@@H]2CCCN2C(=O)[C@H](Cc2cccnc2)NC(=O)[C@H](Cc2ccc(O)cc2)NC(=O)[C@H](CCCCNC(=O)CN2CCN(CC(=O)O)CCN(CC(=O)O)CCN(CC(=O)O)CC2)NC(=O)[C@H](CCCNC(N)=O)NC1=O [UPAR-253, Pent-[Cys-Cit-Lys(DOTA)-Tyr-Mpa-Pro-Hyp-Ile-Nva-Cys]-NH2] (Pentanoyl-C[Cit]K(DOTA)Y[3Pal]P[Hyp]I[Nva]C-NH2; disulfide 1-10) | 1.58 to 10 nM | ≤ 10 nM
CC[C@H](C)[C@@H]1NC(=O)[C@@H](C)NC(=O)[C@@H]2CCCN2C(=O)[C@H](Cc2ccccc2)NC(=O)[C@H](Cc2ccc(O)cc2)NC(=O)[C@H](CCC(=O)O)NC(=O)[C@H](CCCNC(N)=O)NC(=O)[C@@H](NC(=O)CCC(C)C)CSSC[C@@H](C(N)=O)NC(=O)[C@H](CC(C)C)NC1=O [UPAR-255, iHex-[Cys-Cit-Glu-Tyr-Phe-Pro-ala-Ile-Leu-Cys]-NH2] ({Pentanoyl(4-Me)}-C[Cit]EYFP[dA]ILC-NH2; disulfide 1-10) | < 1.58 nM | ≤ 10 nM
